{"source": "patent US12607622B2", "about": "“Method for diagnosing and monitoring inflammatory disease progression” (MCMASTER UNIVERSITY, priority 2013, dated 2026)", "test_system": "BDNF", "test": "BDNF transcript expression in the uterus of ovariectomized mice by Real Time PCR", "format": "in vivo", "conditions": "estradiol primed, Real Time PCR relative expression, FIG. 8", "experimental": "BDNF transcripts were measured in the murine uterus of ovariectomized mice by Real Time PCR and relative expression quantified in mice receiving saline (Control (n=4)), estradiol primed then estradiol (E2 (n=6)), estradiol primed then progesterone (P4 (n=6)), estradiol primed then estradiol+progesterone (E2+P4 (n=6)), or estradiol primed then saline (Saline (n=4). [table]"}
{"smiles": "CC(=O)[C@H]1CC[C@H]2[C@@H]3CCC4=CC(=O)CC[C@]4(C)[C@H]3CC[C@]12C", "note": "[P4, progesterone]", "values": [{"measurement": "BDNF expression in the uterus", "value": "significantly increased"}]}
